The text below walks through data of patent publication US20220348558A1, “INHIBITORS OF ENCEPHALITIC ALPHAVIRUSES” (priority 2019, published 2022).

For one data set, the system named is VEEV TC83. The experiment in a line: microbe, parasite or virus in culture. The note with it: Venezuelan equine encephalitis virus, Vero 76, 48 h, read-out: VEEV TC83 EC50 nM. The data set is classed as cell-based.
Another data set relates to WEEV California. The experiment in a line: microbe, parasite or virus in culture. Type of data set: cell-based. To be noted: Western equine encephalitis virus, Vero 76, 48 h, read-out: WEEV California EC50 nM.
Data set [1] concerns EEEV FL93-939. Briefly: microbe, parasite or virus in culture. The note with it: Eastern equine encephalitis virus, Vero 76, 48 h, read-out: EEEV FL93-939 EC50. The data set is classed as cell-based.
The test system of the next data set is EEEV BeAr 436087. The experiment in a line: microbe, parasite or virus in culture. Type of data set: cell-based. To be noted: Eastern equine encephalitis virus, Vero 76, 48 h, read-out: EEEV BeAr 436087 EC50 nM.
The next data set deals with VEEV TrD. Further details: species or system BALB/C mice. The note with it: mouse, in vivo.
The subject of data set [2] is EEEV FL93-939. Further details: species or system C57BL/6 mice. The note with it: mouse, in vivo.

Where two headings read alike, the source gives them in different places.

What is called EC50 is the concentration at which the effect is half-maximal. For the compound `COc1ccc(-n2c([C@H]3CCCN3)nc3c(-c4cccnc4)cc(C#N)cc3c2=O)cc1F` [Example 107, (R)-3-(3-fluoro-4-methoxyphenyl)-4-oxo-8-(pyridin-3-yl)-2-(pyrrolidin-2-yl)-3,4-dihydroquinazoline-6-carbonitrile], the 50% effective concentration (EC50) in the data set with VEEV TC83 lay in the range of 1 to 50 nM; in the data set on WEEV California, 1 to 50 nM; with EEEV FL93-939 [1], 51 to 150 nM; in the data set with EEEV BeAr 436087 it was 1 to 50 nM.

With `COc1ccc(-n2c(C3CCCN3)nc3c(-c4ccc(C)nc4)cc(C#N)cc3c2=O)cc1F` (stereo not shown) [Example 101, 3-(3-fluoro-4-methoxyphenyl)-8-(6-methylpyridin-3-yl)-4-oxo-2-(pyrrolidin-2-yl)-3,4-dihydroquinazoline-6-carbonitrile], the concentration giving a half-maximal response (EC50) was in the range of 1 to 50 nM with VEEV TC83, 1 to 50 nM in the data set with WEEV California, 51 to 150 nM in the data set with EEEV FL93-939 [1] and 51 to 150 nM in the data set with EEEV BeAr 436087.

Consider `COc1ccc(-n2c([C@H]3CCCN3C)nc3c(C)cc([N+](=O)[O-])cc3c2=O)cc1` [Example 57, (R)-3-(4-methoxyphenyl)-8-methyl-2-(1-methylpyrrolidin-2-yl)-6-nitroquinazolin-4 (3H)-one], for which the EC50 with VEEV TC83 is 51 to 150 nM; in the data set on WEEV California, 151 to 500 nM; in the data set with EEEV FL93-939 [1], 51 to 150 nM; in the data set with EEEV BeAr 436087 it was 51 to 150 nM.

In the case of `COc1ccc(-n2c([C@H]3CCCN3C)nc3ccc([N+](=O)[O-])cc3c2=O)cc1` [Example 10, (R)-3-(4-methoxyphenyl)-2-(1-methylpyrrolidin-2-yl)-6-nitroquinazolin-4 (3H)-one], the EC50 with VEEV TC83 fell in the range of 1 to 50 nM; in the data set on WEEV California, 151 to 500 nM; with EEEV FL93-939 [1], 151 to 500 nM; with EEEV BeAr 436087 it was 51 to 150 nM.

On to `COc1ccc(-n2c([C@@H]3CCCN3C)nc3c(C)cc([N+](=O)[O-])cc3c2=O)cc1` [Example 58, (S)-3-(4-methoxyphenyl)-8-methyl-2-(1-methylpyrrolidin-2-yl)-6-nitroquinazolin-4 (3H)-one], for which the concentration giving a half-maximal response (EC50) in the data set with VEEV TC83 lay within 1 to 50 nM; in the data set on WEEV California, 1 to 50 nM; in the data set on EEEV FL93-939 [1] it was 51 to 150 nM; with EEEV BeAr 436087, 51 to 150 nM.

Consider `COc1ccc(-n2c([C@H]3CCCN3)nc3c(C)cc([N+](=O)[O-])cc3c2=O)cc1F` [Example 59], for which the EC50 with VEEV TC83 lay within 1 to 50 nM; with WEEV California, 1 to 50 nM; in the data set on EEEV FL93-939 [1], 51 to 150 nM; in the data set on EEEV BeAr 436087, 51 to 150 nM.

For `COc1ccc(-n2c([C@H]3CCCN3)nc3c(C)cc([N+](=O)[O-])cc3c2=O)cc1` [Example 55, (R)-3-(4-methoxyphenyl)-8-methyl-6-nitro-2-(pyrrolidin-2-yl) quinazolin-4 (3H)-one], the EC50 in the data set with VEEV TC83 is 1 to 50 nM; in the data set on WEEV California it was 1 to 50 nM; in the data set on EEEV FL93-939 [1] it was 51 to 150 nM; in the data set with EEEV BeAr 436087 it was 51 to 150 nM. Besides, the “day 14 % survival” value in the data set on VEEV TrD is 100%. Also, the survival rate is 75% in the data set on VEEV TrD (12 mg/kg/day), 75% in the data set with VEEV TrD (24 mg/kg/day) and 100% with VEEV TrD (48 mg/kg/day). Moreover, the figures for the “% survival on day 21” value in the data set with EEEV FL93-939 [2] (12 mg/kg/day), in the data set on EEEV FL93-939 [2] (25 mg/kg/day) and with EEEV FL93-939 [2] (50 mg/kg/day) were 30%, 60% and 70%, respectively.

What is called melting point is the temperature of the solid-liquid transition. In the case of `COc1ccc(-n2c([C@H]3C[C@H](F)CN3)nc3c(C)cc([N+](=O)[O-])cc3c2=O)cc1` [Example 61, 2-((2R,4S)-4-fluoropyrrolidin-2-yl)-3-(4-methoxyphenyl)-8-methyl-6-nitroquinazolin-4 (3H)-one], the melting point is 183.06 to 185.34 °C. For the same compound, in the data set on VEEV TC83, the EC50 was in the range of 1 to 50 nM. In addition, the EC50 in the data set on WEEV California lay in the range of 51 to 150 nM. Also, the EC50 in the data set with EEEV FL93-939 [1] is 51 to 150 nM. Also, in the data set with EEEV BeAr 436087, the EC50 lay in the range of 51 to 150 nM.

As to `COc1ccc(-n2c([C@H]3CCCN3)nc3c(-c4ccc(F)nc4)cc([N+](=O)[O-])cc3c2=O)cc1F` [Example 89, (R)-3-(3-fluoro-4-methoxyphenyl)-8-(6-fluoropyridin-3-yl)-6-nitro-2-(pyrrolidin-2-yl) quinazolin-4 (3H)-one], the EC50 was in the range of 1 to 50 nM in the data set on VEEV TC83, 1 to 50 nM with WEEV California, 51 to 150 nM in the data set on EEEV FL93-939 [1] and 51 to 150 nM with EEEV BeAr 436087.

Regarding `COc1ccc(-n2c([C@H]3CCCN3)nc3c(-c4ccc(C(F)(F)F)nc4)cc(C#N)cc3c2=O)cc1F` [Example 100, (R)-3-(3-fluoro-4-methoxyphenyl)-4-oxo-2-(pyrrolidin-2-yl)-8-(6-(trifluoromethyl)pyridin-3-yl)-3,4-dihydroquinazoline-6-carbonitrile], the half-maximal effective concentration (EC50) is 1 to 50 nM with VEEV TC83, 1 to 50 nM in the data set with WEEV California, 51 to 150 nM in the data set on EEEV FL93-939 [1] and 51 to 150 nM with EEEV BeAr 436087.

As for `COc1ccc(-n2c([C@H]3CCNC3)nc3ccc([N+](=O)[O-])cc3c2=O)cc1` [Example 18, (S)-3-(4-methoxyphenyl)-6-nitro-2-(pyrrolidin-3-yl) quinazolin-4 (3H)-one], the EC50 lay within 1 to 50 nM in the data set on VEEV TC83, 151 to 500 nM in the data set with WEEV California, 151 to 500 nM in the data set on EEEV FL93-939 [1] and 51 to 150 nM in the data set with EEEV BeAr 436087.

For the compound `COc1ccc(-n2c([C@H]3C[C@H](F)CN3)nc3c(-c4cccnc4)cc([N+](=O)[O-])cc3c2=O)cc1` [Example 86, 2-((2R,4S)-4-fluoropyrrolidin-2-yl)-3-(4-methoxyphenyl)-6-nitro-8-(pyridin-3-yl) quinazolin-4 (3H)-one], the EC50 in the data set with VEEV TC83 lay within 1 to 50 nM; with WEEV California, 1 to 50 nM; with EEEV FL93-939 [1] it was 51 to 150 nM; in the data set with EEEV BeAr 436087, 51 to 150 nM.

Turning to `O=c1c2cc([N+](=O)[O-])ccc2nc(C2CCN2)n1-c1ccccc1` (stereo not shown) [Example 27, 2-(azetidin-2-yl)-6-nitro-3-phenylquinazolin-4 (3H)-one], the EC50 was 501 to 1000 nM in the data set on VEEV TC83 and greater than 1000 nM with WEEV California.

`COc1ccc(-n2c([C@H]3C[C@H](F)CN3)nc3c(-c4ccc(C)nc4)cc(C#N)cc3c2=O)cc1F` [Example 112, 3-(3-fluoro-4-methoxyphenyl)-2-((2R,4S)-4-fluoropyrrolidin-2-yl)-8-(6-methylpyridin-3-yl)-4-oxo-3,4-dihydroquinazoline-6-carbonitrile]: the 50% effective concentration (EC50) in the data set with VEEV TC83 fell in the range of 1 to 50 nM; in the data set with WEEV California, 51 to 150 nM.

For `COc1ccc(-n2c(C3CCCN3)nc3c(-c4ccc(C#N)nc4)cc(C#N)cc3c2=O)cc1F` (stereo not shown) [Example 126, 8-(6-cyanopyridin-3-yl)-3-(3-fluoro-4-methoxyphenyl)-4-oxo-2-(pyrrolidin-2-yl)-3,4-dihydroquinazoline-6-carbonitrile], the values for the concentration giving a half-maximal response (EC50) with VEEV TC83 and in the data set on WEEV California were 1 to 50 nM and 51 to 150 nM, respectively.

As for `COc1ccc(-n2c(C3CCCN3)nc3c(-c4ccc(N5CCOCC5)nc4)cc(C#N)cc3c2=O)cc1F` (stereo not shown) [Example 124, 3-(3-fluoro-4-methoxyphenyl)-8-(6-morpholinopyridin-3-yl)-4-oxo-2-(pyrrolidin-2-yl)-3,4-dihydroquinazoline-6-carbonitrile], the 50% effective concentration (EC50) in the data set with VEEV TC83 and with WEEV California was 1 to 50 nM each time.
